Reference: PubChem BioAssay AID1845211 (Molecular Pharmacology Branch, DTP, NCI, 2023)

Tested on: NCI-H322M multicellular tumor spheroids, viability (% test/control)
Assay: Anticancer human tumor NCI-H322M cell line growth inhibition;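 for viability, T/C: spheroids exposed to compound for seven days before readout; 100% = DMSO vehicle control wells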
Details: for IC50: curve of first compound; for viability, T/C: stronger effect = lower value; active = viability on the fitted dose curve at most 10% of control; inactive = the rest
Procedure, shortened: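 Complex tumor spheroids combined malignant cells with endothelial cells and mesenchymal stem cells. DNA-damaging drugs and DNA repair inhibitors were tested alone and in combination, at half-log dilutions down from clinical Cmax (top 10 microM if Cmax unknown), 0.25% DMSO final.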

COc1ccc([C@@H](O)c2cc(-c3ncnc4cc(N5CCOCC5)ccc34)c(F)cc2Cl)nn1 + COc1cc2c(cc1O)CCNC21CSC2c3c(OC(C)=O)c(C)c4c(c3C(COC1=O)N1C(O)C3Cc5cc(C)c(OC)c(O)c5C(C21)N3C)OCO4
< 31.6 nM: IC50 (second compound 0.003 µM)
inactive: viability, T/C (second compound 30 pM, first compound 0.0316 µM) 101% | viability, T/C (second compound 30 pM, first compound 0.1 µM) 75.9% | viability, T/C (second compound 30 pM, first compound 0.316 µM) 79.1% | viability, T/C (second compound 30 pM, first compound 1 µM) 62.1% | viability, T/C (second compound 30 pM, first compound 3.16 µM) 45.3% | viability, T/C (second compound 30 pM, first compound 10 µM) 30.4% | viability, T/C (second compound 94.9 pM, first compound 0.0316 µM) 96% | viability, T/C (second compound 94.9 pM, first compound 0.1 µM) 89.1% | viability, T/C (second compound 94.9 pM, first compound 0.316 µM) 82.2% | viability, T/C (second compound 94.9 pM, first compound 1 µM) 55.8% | viability, T/C (second compound 94.9 pM, first compound 3.16 µM) 41.5% | viability, T/C (second compound 94.9 pM, first compound 10 µM) 32% | viability, T/C (second compound 0.0003 µM, first compound 0.0316 µM) 106% | viability, T/C (second compound 0.0003 µM, first compound 0.1 µM) 94.1% | viability, T/C (second compound 0.0003 µM, first compound 0.316 µM) 71.1% | viability, T/C (second compound 0.0003 µM, first compound 1 µM) 56.4% | viability, T/C (second compound 0.0003 µM, first compound 3.16 µM) 38.2% | viability, T/C (second compound 0.0003 µM, first compound 10 µM) 26.8% | viability, T/C (second compound 0.000949 µM, first compound 0.0316 µM) 84.2% | viability, T/C (second compound 0.000949 µM, first compound 0.1 µM) 75.7% | viability, T/C (second compound 0.000949 µM, first compound 0.316 µM) 58.7% | viability, T/C (second compound 0.000949 µM, first compound 1 µM) 28.3%
active: viability, T/C (second compound 0.000949 µM, first compound 3.16 µM) 5.57% | viability, T/C (second compound 0.000949 µM, first compound 10 µM) 2.25% | viability, T/C (second compound 0.003 µM, first compound 0.0316 µM) 3.77% | viability, T/C (second compound 0.003 µM, first compound 0.1 µM) 3.3% | viability, T/C (second compound 0.003 µM, first compound 0.316 µM) 5.4% | viability, T/C (second compound 0.003 µM, first compound 1 µM) 1.15% | viability, T/C (second compound 0.003 µM, first compound 3.16 µM) 1.98% | viability, T/C (second compound 0.003 µM, first compound 10 µM) 2.69%
2340 nM: IC50 (second compound 30 pM)
1640 nM: IC50 (second compound 94.9 pM)
1400 nM: IC50 (second compound 0.0003 µM)
433 nM: IC50 (second compound 0.000949 µM)
